What was measured:
Experiment in all cases: relative viability (nuclei count vs DMSO), 5 days (fraction); higher = more cells survive
[1] = compound: COc1cc2c(Oc3ccc4[nH]c(C)cc4c3F)ncnc2cc1OCCCN1CCCC1 [Cediranib] + CS(=O)(=O)N1CCN(Cc2cc3nc(-c4cccc5[nH]ncc45)nc(N4CCOCC4)c3s2)CC1 [Pictilisib] (partner 1 µM)
Summary of the method: (§1)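 Dosing by pin tool came one day after lung cancer cell lines were seeded in 1536-well plates, using either one drug or a fixed anchor-drug dose plus five library-drug doses (not always all listed) in √10 steps. After 5 days, nuclei were counted on 4× images. Relative viability is treated-well nuclei count divided by vehicle-well nuclei count, and values are medians of duplicate plates.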

[2] = compound: COc1cc2c(Oc3ccc4[nH]c(C)cc4c3F)ncnc2cc1OCCCN1CCCC1 [Cediranib] + C[C@]1(O)C[C@@H](c2nc(-c3ccc4ccc(-c5ccccc5)nc4c3)c3c(N)nccn32)C1 [Linsitinib] (partner 1 µM)
Summary of the method: as §1

[3] = compound: O=C(C[C@H]1NCCC[C@@H]1O)Cn1cnc2cc(Br)c(Cl)cc2c1=O (racemic) [Halofuginone] + Nc1nc2[nH]cc(CCc3ccc(C(=O)N[C@@H](CCC(=O)O)C(=O)O)cc3)c2c(=O)[nH]1 [Pemetrexed] (partner 0.2 µM)
Summary of the method: as §1

[4] = compound: O=C(C[C@H]1NCCC[C@@H]1O)Cn1cnc2cc(Br)c(Cl)cc2c1=O (racemic) [Halofuginone] + Nc1ncn([C@H]2C[C@H](O)[C@@H](CO)O2)c(=O)n1 [Decitabine] (partner 2 µM)
Summary of the method: as §1

UMC-11
relative viability ([1]; first compound 0.04 µM): 1.01 | relative viability ([1]; first compound 0.1265 µM): 0.316 | relative viability ([1]; first compound 0.4 µM): 0.707 | relative viability ([1]; first compound 1.265 µM): 0.466 | relative viability ([1]; first compound 4 µM): 0.862 | relative viability ([2]; first compound 0.04 µM): 1.06 | relative viability ([2]; first compound 0.1265 µM): 1.02 | relative viability ([2]; first compound 0.4 µM): 0.955 | relative viability ([2]; first compound 1.265 µM): 0.957 | relative viability ([2]; first compound 4 µM): 0.934 | relative viability ([3]; first compound 0.001 µM): 0.881 | relative viability ([3]; first compound 0.003162 µM): 0.834 | relative viability ([3]; first compound 0.01 µM): 0.727 | relative viability ([3]; first compound 0.03162 µM): 0.651 | relative viability ([3]; first compound 0.1 µM): 0.443 | relative viability ([4]; first compound 0.001 µM): 0.646 | relative viability ([4]; first compound 0.003162 µM): 0.848 | relative viability ([4]; first compound 0.01 µM): 0.59 | relative viability ([4]; first compound 0.03162 µM): 0.604 | relative viability ([4]; first compound 0.1 µM): 0.426
